Measurements published in the NIST ThermoML archive (doi:10.1016/j.jct.2018.12.019).
Numbers after ± are expanded uncertainties.

Experiment: xn = mol fraction of the nth substance listed
Details: 98 kPa, Liquid; for speed of sound: Frequency=3 MHz, Single path-length method; for mass density: Vibrating tube method

Cn1ccnc1 [1-methylimidazole] + CO
Details	mass density, 288.15 K [kg/m3]	mass density, 298.15 K [kg/m3]	mass density, 308.15 K [kg/m3]	mass density, 318.15 K [kg/m3]	mass density, 328.15 K [kg/m3]	speed of sound, 288.15 K [m/s]	speed of sound, 298.15 K [m/s]	speed of sound, 308.15 K [m/s]	speed of sound, 318.15 K [m/s]	speed of sound, 328.15 K [m/s]
x1 = 0.0507	822.81 ± 0.82	813.46 ± 0.82	804.03 ± 0.82	794.49 ± 0.82	784.81 ± 0.82	1185.2 ± 1.1	1151.8 ± 1.1	1118.6 ± 1.1	1085.8 ± 1.1	1053.3 ± 1.1
x1 = 0.1009	846.62 ± 0.81	837.31 ± 0.81	827.92 ± 0.81	818.41 ± 0.81	808.78 ± 0.82	1230.7 ± 1.2	1196.9 ± 1.2	1163.2 ± 1.2	1130 ± 1.2	1097.2 ± 1.2
x1 = 0.1961	884.53 ± 0.81	875.26 ± 0.81	865.91 ± 0.81	856.48 ± 0.81	846.92 ± 0.81	1305.4 ± 1.2	1270.8 ± 1.2	1236.4 ± 1.2	1202.4 ± 1.2	1168.7 ± 1.2
x1 = 0.296	918.09 ± 0.81	908.87 ± 0.81	899.58 ± 0.81	890.21 ± 0.81	880.75 ± 0.81	1374 ± 1.2	1338.8 ± 1.2	1303.7 ± 1.2	1268.9 ± 1.2	1234.5 ± 1.2
x1 = 0.3988	946.5 ± 0.81	937.33 ± 0.81	928.11 ± 0.81	918.82 ± 0.81	909.45 ± 0.81	1434.1 ± 1.2	1398.4 ± 1.2	1362.7 ± 1.2	1327.4 ± 1.2	1292.4 ± 1.2
x1 = 0.5058	969.95 ± 0.81	960.86 ± 0.81	951.71 ± 0.81	942.51 ± 0.81	933.23 ± 0.81	1484.7 ± 1.3	1448.5 ± 1.3	1412.4 ± 1.3	1376.6 ± 1.3	1341.1 ± 1.3
x1 = 0.6096	989.14 ± 0.81	980.11 ± 0.81	971.04 ± 0.81	961.92 ± 0.81	952.74 ± 0.82	1526.2 ± 1.3	1489.6 ± 1.3	1453 ± 1.3	1416.8 ± 1.3	1380.9 ± 1.3
x1 = 0.7023	1003.69 ± 0.82	994.72 ± 0.82	985.72 ± 0.82	976.66 ± 0.82	967.55 ± 0.82	1558 ± 1.3	1521.2 ± 1.3	1484.3 ± 1.3	1447.8 ± 1.3	1411.7 ± 1.3
x1 = 0.8018	1017.21 ± 0.82	1008.3 ± 0.82	999.35 ± 0.82	990.36 ± 0.82	981.32 ± 0.82	1587.5 ± 1.4	1550.4 ± 1.4	1513.3 ± 1.4	1476.5 ± 1.4	1440.5 ± 1.4
x1 = 0.8994	1028.89 ± 0.83	1020.02 ± 0.83	1011.12 ± 0.82	1002.18 ± 0.82	993.19 ± 0.82	1612.9 ± 1.4	1575.6 ± 1.4	1538.2 ± 1.4	1501.2 ± 1.4	1464.5 ± 1.4
x1 = 0.951	1034.48 ± 0.83	1025.61 ± 0.83	1016.76 ± 0.83	1007.87 ± 0.83	998.91 ± 0.83	1625 ± 1.4	1587.6 ± 1.4	1550.1 ± 1.4	1513 ± 1.4	1476.2 ± 1.4
x1 = 1	1039.36 ± 0.83	1030.52 ± 0.83	1021.66 ± 0.83	1012.76 ± 0.83	1003.83 ± 0.83	1634.1 ± 1.4	1596.5 ± 1.4	1559 ± 1.4	1521.8 ± 1.4	1485 ± 1.4

Cn1ccnc1 [1-methylimidazole] + O
Details	mass density, 288.15 K [kg/m3]	mass density, 298.15 K [kg/m3]	mass density, 308.15 K [kg/m3]	mass density, 318.15 K [kg/m3]	mass density, 328.15 K [kg/m3]	speed of sound, 288.15 K [m/s]	speed of sound, 298.15 K [m/s]	speed of sound, 308.15 K [m/s]	speed of sound, 318.15 K [m/s]	speed of sound, 328.15 K [m/s]
x1 = 0.0521	1011.8 ± 0.8	1007.6 ± 0.8	1002.76 ± 0.8	997.34 ± 0.8	991.41 ± 0.8	1581.3 ± 1.1	1587 ± 1.1	1588.8 ± 1.1	1586.8 ± 1	1581.4 ± 1
x1 = 0.1076	1022.54 ± 0.8	1016.8 ± 0.8	1010.63 ± 0.8	1004.04 ± 0.8	997.06 ± 0.8	1645.6 ± 1.1	1636.9 ± 1.1	1625.7 ± 1.1	1612.2 ± 1	1596.3 ± 1
x1 = 0.2035	1035.77 ± 0.8	1028.46 ± 0.8	1020.89 ± 0.8	1013.06 ± 0.8	1004.95 ± 0.8	1705.3 ± 1.1	1682.6 ± 1.1	1658.4 ± 1.1	1633.1 ± 1.1	1606.6 ± 1.1
x1 = 0.3041	1044.45 ± 0.8	1036.28 ± 0.8	1027.92 ± 0.8	1019.36 ± 0.8	1010.6 ± 0.8	1731.5 ± 1.1	1707.2 ± 1.1	1669.9 ± 1.1	1638.1 ± 1.1	1605.7 ± 1.1
x1 = 0.4017	1048.95 ± 0.81	1040.34 ± 0.81	1031.57 ± 0.81	1022.64 ± 0.8	1013.55 ± 0.8	1735.5 ± 1.1	1701.4 ± 1.1	1667.7 ± 1.1	1631.6 ± 1.1	1596.3 ± 1.1
x1 = 0.5053	1050.2 ± 0.81	1041.41 ± 0.81	1032.48 ± 0.81	1023.41 ± 0.81	1014.19 ± 0.81	1723.2 ± 1.2	1687.5 ± 1.2	1651.3 ± 1.2	1615 ± 1.2	1578.4 ± 1.2
x1 = 0.6052	1048.91 ± 0.81	1040.12 ± 0.81	1031.21 ± 0.81	1022.16 ± 0.81	1012.98 ± 0.81	1702.4 ± 1.2	1666.6 ± 1.2	1630.2 ± 1.2	1593.7 ± 1.2	1557 ± 1.2
x1 = 0.7018	1046.64 ± 0.82	1037.87 ± 0.81	1028.99 ± 0.81	1020.01 ± 0.81	1010.92 ± 0.81	1681.9 ± 1.3	1645.8 ± 1.3	1609.4 ± 1.3	1573 ± 1.3	1536.5 ± 1.3
x1 = 0.8044	1043.96 ± 0.82	1035.17 ± 0.82	1026.32 ± 0.82	1017.39 ± 0.82	1008.38 ± 0.82	1662.5 ± 1.3	1626 ± 1.3	1589.3 ± 1.3	1552.7 ± 1.3	1516.3 ± 1.3
x1 = 0.9031	1041.64 ± 0.83	1032.83 ± 0.83	1023.98 ± 0.82	1015.07 ± 0.82	1006.1 ± 0.82	1647.8 ± 1.4	1610.9 ± 1.4	1573.7 ± 1.4	1536.9 ± 1.4	1500.3 ± 1.4
x1 = 0.9555	1040.49 ± 0.83	1031.66 ± 0.83	1022.8 ± 0.83	1013.91 ± 0.83	1004.96 ± 0.82	1640.8 ± 1.4	1603.8 ± 1.4	1566.4 ± 1.4	1529.3 ± 1.4	1492.6 ± 1.4
x1 = 1	1039.36 ± 0.83	1030.52 ± 0.83	1021.66 ± 0.83	1012.76 ± 0.83	1003.83 ± 0.83	1634.1 ± 1.4	1596.5 ± 1.4	1559 ± 1.4	1521.8 ± 1.4	1485 ± 1.4
